# System: HEK 293 cells
# Test: Flow cytometry of PAPP-A binding to the cell surface
# Format: cell-based, human
# Conditions: HEK 293 cells transfected with rPAPP-A cDNA, mAb 234-2 detection
# Description: Flow cytometry was used to assess the binding of PAPP-A to the cell surface of HEK 293 cells either transfected with empty expression vector or with the vector containing cDNA encoding rPAPP-A (see Example 4 for a description of vectors and transfections). […] Fifty μl of the cell suspension was incubated with primary antibody (final concentration 5 μg/ml purified PAPP-A specific mAb 234-2) on ice for 30 min. Cells were then washed three times with L15/FBS and incubated with fluorescein isothiocyanate-conjugated goat anti-mouse IgG (heavy and light chain, Zymed Laboratories, San Francisco, Calif.) for 30 min on ice. Cells were fixed in buffer with 1% formaldehyde before flow cytometry on a Becton Dickinson instrument. […] Similar results were obtained with other PAPP-A monoclonal antibodies (234-3, 234-4, 234-5, and 234-7).
substance,measurement,value
"PAPP-A: pregnancy-associated plasma protein-A, the IGF-dependent IGFBP-4 protease",Binding to the cell surface,binds to the surface of HEK 293 cells
